Results as given in patent US9938562B2, “Naphthalene derived chromogenic enzyme substrates” (Glycosynth Limited, priority 2013, dated 2018).
Structures can show the parent of a compound that is named as a salt. Where two headings read alike, the source gives them in different places.

Columns and labels:
[1] = tested on: Escherichia coli NCTC 10418; assay: Agar plate multi-point inoculation, colour; assay type: cell-based
[2] = tested on: Providencia rettgeri NCTC 7475; assay: Agar plate multi-point inoculation, colour; assay type: cell-based
[3] = tested on: Enterobacter cloacae NCTC 11936; assay: Agar plate multi-point inoculation, colour; assay type: cell-based
[4] = tested on: Serratia marcescens NCTC 10211; assay: Agar plate multi-point inoculation, colour; assay type: cell-based
[5] = tested on: Salmonella typhimurium NCTC 74; assay: Agar plate multi-point inoculation, colour; assay type: cell-based
[6] = tested on: Pseudomonas aeruginosa NCTC 10662; assay: Agar plate multi-point inoculation, colour; assay type: cell-based
[7] = tested on: Yersinia enterocolitica NCTC 11176; assay: Agar plate multi-point inoculation, colour; assay type: cell-based; details: Columbia agar, FAC 500 mg/L, substrate 300 mg/L, 37° C. 18 h in air
[8] = tested on: Steptococcus pyogenes NCTC 8306; assay: Agar plate multi-point inoculation, colour; assay type: cell-based
[9] = tested on: Staphylococcus aureus (MRSA) NCTC 11939; assay: Agar plate multi-point inoculation, colour; assay type: cell-based; details: for Colour: Columbia agar, FAC 500 mg/L, substrate 300 mg/L, 37° C. 18 h in air
[10] = tested on: Staphylococcus aureus NCTC 6571; assay: Agar plate multi-point inoculation, colour; assay type: cell-based
[11] = tested on: Staphylococcus epidermidis NCTC 11047; assay: Agar plate multi-point inoculation, colour; assay type: cell-based
[12] = tested on: Listeria monocytogenes NCTC 11994; assay: Agar plate multi-point inoculation, colour; assay type: cell-based
[13] = tested on: Enterococcus faecium NCTC 7171; assay: Agar plate multi-point inoculation, colour; assay type: cell-based
[14] = tested on: Enterococcus faecalis NCTC 775; assay: Agar plate multi-point inoculation, colour; assay type: cell-based
[15] = tested on: Bacillus subtilis NCTC 9372; assay: Agar plate multi-point inoculation, colour; assay type: cell-based
[16] = tested on: Candida albicans ATCC 90028; assay type: cell-based; details: Columbia agar, FAC 500 mg/L, substrate 300 mg/L, 37° C. 18 h in air
[17] = tested on: Candida glabrata NCPF 3943; assay: Agar plate multi-point inoculation, colour; assay type: cell-based
[18] = tested on: Burkholderia cepacia 1222; assay: Agar plate multi-point inoculation, colour; assay type: cell-based; details: Columbia agar, FAC 500 mg/L, substrate 300 mg/L, 37° C. 18 h in air
[19] = tested on: Citrobacter freundii NCTC 9750 or 46262; assay: Agar plate multi-point inoculation, colour; assay type: cell-based; details: Columbia agar, FAC 500 mg/L, substrate 300 mg/L, 37° C. 18 h in air
[20] = tested on: Morganella morganii 462403 (wild); assay: Agar plate multi-point inoculation, colour; assay type: cell-based; details: Columbia agar, FAC 500 mg/L, substrate 300 mg/L, 37° C. 18 h in air
[21] = tested on: Klebsiella pneumoniae NCTC 9528; assay: Agar plate multi-point inoculation, colour; assay type: cell-based
[22] = tested on: Burkholderia cepacia NCTC 10931; assay: Agar plate multi-point inoculation, colour; assay type: cell-based; details: Columbia agar, FAC 500 mg/L, substrate 300 mg/L, 37° C. 18 h in air
[23] = tested on: Acinetobacter baumannii NCTC 19606; assay: Agar plate multi-point inoculation, colour; assay type: cell-based
[24] = tested on: range of microorganisms; assay: Agar plate evaluation with a range of microorganisms (hue, diffusion, background); assay type: cell-based; details: agar plates with FAC
[25] = Columbia agar, FAC 500 mg/L, substrate 300 mg/L, 37° C. 18 h in air

CC(=O)NC1C(Oc2cc3ccccc3cc2O)OC(CO)C(O)C1O [Compound 15, DHN-N-acetyl-β-D-glucosaminide]
−: Colour [1, 25] | Colour [2, 25] | Colour [5, 25] | Colour [6, 25] | Colour [9] | Colour [10, 25] | Colour [11, 25] | Colour [15, 25] | Colour [16] | Colour [17, 25] | Colour [18] | Colour [19] | Colour [20]
+/−: Colour [3, 25]
+: Colour [7]
++: Colour [4, 25] | Colour [8, 25] | Colour [12, 25] | Colour [13, 25] | Colour [14, 25]
204 to 205 °C: melting point

CCCCCCCC(=O)Oc1cc2ccccc2cc1OC(=O)CCCCCCC [Compound 16, DHN-dicaprylate]
+: Colour [2, 25] | Colour [4, 25] | Colour [6, 25] | Colour [23, 25]
−: Colour [1, 25] | Colour [21, 25] | Colour [3, 25] | Colour [5, 25] | Colour [7] | Colour [22] | Colour [8, 25] | Colour [9] | Colour [10, 25] | Colour [11, 25] | Colour [12, 25] | Colour [13, 25] | Colour [14, 25] | Colour [15, 25] | Colour [16] | Colour [17, 25]

OCC1OC(Oc2cc3ccccc3cc2O)C(O)C(O)C1O [Compound 10, DHN-α-D-galactopyranoside]
Tr.: Colour [1, 25] | Colour [3, 25]
−: Colour [2, 25] | Colour [4, 25] | Colour [5, 25] | Colour [6, 25] | Colour [7] | Colour [8, 25] | Colour [9] | Colour [10, 25] | Colour [11, 25] | Colour [12, 25] | Colour [13, 25] | Colour [14, 25] | Colour [15, 25] | Colour [16] | Colour [17, 25] | Colour [18] | Colour [19] | Colour [20]

O=P([O-])([O-])Oc1cc2ccccc2cc1O.[Na+].[Na+] [Compound 17, DHN-phosphate Disodium Salt]
+: Colour [2] | Colour [9] | Colour [10] | Colour [12]
−: Colour [6] | Colour [23] | Colour [8] | Colour [11] | Colour [13] | Colour [14] | Colour [15] | Colour [16] | Colour [17]
+/−: Colour [1] | Colour [3] | Colour [7] | Colour [22]
++: Colour [21] | Colour [4] | Colour [5]

O=C(O)C1OC(Oc2cc3ccccc3cc2O)C(O)C(O)C1O (as salt: salt) [Compound 12a, DHN-β-D-glucuronide CHA Salt]
223 to 224 °C: melting point

OCC1OC(Oc2cc3cc(Br)c(Br)cc3cc2O)C(O)C(O)C1O [Compound 25, 6,7-Dibromo-DHN-β-D-galactopyranoside]
++: Colour [1, 25]
+/−: Colour [12, 25] | Colour [13, 25] | Colour [18]
−: Colour [2, 25] | Colour [3, 25] | Colour [5, 25] | Colour [6, 25] | Colour [7] | Colour [8, 25] | Colour [9] | Colour [10, 25] | Colour [11, 25] | Colour [15, 25] | Colour [16] | Colour [17, 25] | Colour [20]
256 to 257 °C: melting point
+: Colour [4, 25] | Colour [19]
Tr.: Colour [14, 25]

OC[C@H]1O[C@@H](Oc2cc3ccccc3cc2O)C(O)C1O (stereo partly drawn) [Compound 2, DHN-β-D-ribofuranoside]
able to hydrolyse: hydrolysis of substrate ([9]; agar plates with FAC) | hydrolysis of substrate ([10]; agar plates with FAC)
−: Colour [6, 25] | Colour [7] | Colour [8, 25] | Colour [11, 25] | Colour [12, 25] | Colour [13, 25] | Colour [14, 25] | Colour [15, 25] | Colour [16] | Colour [17, 25] | Colour [18]
unaffected: hydrolysis of substrate ([11]; agar plates with FAC)
++: Colour [1, 25] | Colour [2, 25] | Colour [3, 25] | Colour [4, 25] | Colour [5, 25] | Colour [19] | Colour [20]
181 to 182 °C: melting point
+: Colour [9] | Colour [10, 25]

OCC1OC(Oc2cc3ccccc3cc2O)C(O)C(O)C1O [Compound 4, DHN-β-D-glucopyranoside]
Tr.: Colour [1, 25]
> 210 °C (dec.): melting point
++: Colour [21, 25] | Colour [2, 25] | Colour [4, 25]
−: Colour [5, 25] | Colour [6, 25] | Colour [7] | Colour [22] | Colour [23, 25] | Colour [8, 25] | Colour [9] | Colour [10, 25] | Colour [11, 25] | Colour [16] | Colour [17, 25]
+: Colour [3, 25] | Colour [12, 25] | Colour [13, 25] | Colour [14, 25] | Colour [15, 25]

O=C(O)C1OC(Oc2cc3cc(Br)c(Br)cc3cc2O)C(O)C(O)C1O (as salt: salt) [Compound 29, 6,7-Dibromo-DHN-β-D-glucuronide CHA Salt]
221 to 224 °C: melting point

O=C(O)C1OC(Oc2cc3cc(Br)c(Br)cc3cc2O)C(O)C(O)C1O [Compound 29, 6,7-Dibromo-DHN-β-D-glucuronide CHA Salt]
−: Colour [2] | Colour [3] | Colour [4] | Colour [5] | Colour [6] | Colour [7] | Colour [8] | Colour [9] | Colour [10] | Colour [11] | Colour [12] | Colour [13] | Colour [14] | Colour [15] | Colour [16] | Colour [17] | Colour [18] | Colour [19] | Colour [20]
++: Colour [1]

O=[N+]([O-])c1c(O)c(O[C@@H]2O[C@H](CO)C(O)C2O)cc2ccccc12 (stereo partly drawn) [Compound 19, 1-Nitro-DHN-β-D-ribofuranoside]
> 170 °C (dec.): melting point
more distinctly red: colour (hue) after hydrolysis [24]

OCC1OC(Oc2cc3ccccc3cc2O)C(O)C(O)C1O [Compound 6, DHN-α-D-glucopyranoside]
Tr.: Colour [7] | Colour [13, 25]
−: Colour [2, 25] | Colour [5, 25] | Colour [6, 25] | Colour [16] | Colour [17, 25] | Colour [18] | Colour [19] | Colour [20]
164 to 166 °C: melting point
+: Colour [1, 25] | Colour [11, 25]
+/−: Colour [9] | Colour [10, 25]
++: Colour [3, 25] | Colour [4, 25] | Colour [8, 25] | Colour [12, 25] | Colour [14, 25] | Colour [15, 25]

O=C([O-])C1OC(Oc2cc3ccccc3cc2O)C(O)C(O)C1O.[Na+] [Compound 12b, DHN-β-D-glucuronide Sodium Salt]
++: Colour [1, 25]
strong colour: hydrolysis of substrate (judged by colour) ([1]; agar plates containing FAC)
−: Colour [2, 25] | Colour [3, 25] | Colour [4, 25] | Colour [5, 25] | Colour [6, 25] | Colour [7] | Colour [8, 25] | Colour [9] | Colour [10, 25] | Colour [11, 25] | Colour [12, 25] | Colour [13, 25] | Colour [14, 25] | Colour [15, 25] | Colour [16] | Colour [17, 25] | Colour [18] | Colour [19] | Colour [20]
53 to 55 °C: melting point

OCC1OC(Oc2cc3cc(Br)c(Br)cc3cc2O)C(O)C(O)C1O [Compound 27, 6,7-Dibromo-DHN-β-D-glucopyranoside]
Tr.: Colour [1, 25] | Colour [9] | Colour [10, 25] | Colour [14, 25]
−: Colour [3, 25] | Colour [5, 25] | Colour [6, 25] | Colour [7] | Colour [8, 25] | Colour [11, 25] | Colour [16] | Colour [17, 25] | Colour [20]
+/−: Colour [12, 25] | Colour [13, 25]
+: Colour [15, 25] | Colour [18] | Colour [19]
++: Colour [2, 25] | Colour [4, 25]
